# Where “and” joins values, the source holds several entries; their conditions need not be identical. Equal values may be shown once.
# Columns and labels:
# [1] = Particle size and polydispersity index (PDI) of lipid nanoparticles, dynamic light scattering; assay type: physicochemical; conditions: LNP preparation with the named cationic lipid; 90° scattering angle, 25° C
# Summary of the method: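 LNPs of cationic lipid:DSPC:cholesterol:DMG-PEG2000 (49:10:39.5:1.5 molar) encapsulating eGFP or Fluc mRNA at 15:1 lipid:mRNA weight ratio, made by ethanol injection into citrate buffer pH 4–5, sonication, and ultrafiltration into PBS. Size and PDI by DLS at 90° and 25° C after dilution in water, three measurements per sample.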
# female BALB/C mice [2] = experiment: Expression of delivered mRNA in different organs of mice (organ imaging); assay type: in vivo
# Summary of the method: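 Female BALB/C mice (4–6 weeks, 17–19 g) received LNPs carrying 5 μg Fluc-mRNA subcutaneously. At 6 h, imaging substrate was given i.p.; after 5 min, whole-body and then excised-organ (heart, liver, spleen, lung, kidney, lymph) average radiance was measured by IVIS Spectrum imaging.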
# 293T cells [3] = experiment: Cell viability assay (CCK-8) with LNP preparations of Fluc-mRNA; assay type: cell-based
# Summary of the method: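 293T cells seeded at 10,000/well and cultured overnight, then given LNPs (cationic lipid:DSPC:cholesterol:DMG-PEG2000 49:10:39.5:1.5) carrying 1.5 μg Fluc-mRNA. After 24 h, viability measured by CCK-8 with 1 h incubation.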
# female BALB/C mice [4] = experiment: Distribution of delivered small nucleic acid drug (Cy5 fluorescently labeled Leqvio) in different organs of mice; assay type: in vivo
# Protocol: LNP preparations containing 5 μg of Cy5 fluorescently labeled Leqvio were injected via the tail vein into female BALB/C mice (4 to 6 weeks old, weighing 17 to 19 g). At a specific time point after administration (4 h), the average radiation intensity (corresponding to fluorescence intensity) resulting from the Cy5 fluorescently labeled Leqvio delivered by the LNP preparations in the mice in vivo was detected using the IVIS Spectrum small-animal in vivo imaging system. After sampling, the mice were killed by cervical dislocation and dissected, and the internal organs: heart, liver, spleen, lung, kidney, and lymph of mice were accurately isolated. The average radiation intensity (corresponding to fluorescence intensity) resulting from Cy5 fluorescently labeled Leqvio delivered by the LNP preparations in various organs of mice was then detected using the IVIS Spectrum small-animal in vivo imaging system.
# 293T cells [5] = experiment: Fluorescence detection of Fluc-mRNA (transfection efficiency) of LNP preparations; assay type: cell-based; conditions: Fluc-mRNA LNP
# Summary of the method: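 293T cells seeded at 10,000 per well in 96-well plates overnight, then dosed with LNPs (cationic lipid:DSPC:cholesterol:DMG-PEG2000 49:10:39.5:1.5 molar; total lipid:mRNA 15:1 w/w) carrying 0.3 μg Fluc-mRNA. After 24 h, luciferase kit reagents added and fluorescence intensity per well read by IVIS imaging.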
# [6] = 6 hours after 5 μg Fluc-mRNA subcutaneously
# [7] = 4 hours after 5 μg Cy5 fluorescently labeled Leqvio via tail vein
smiles,measurement,setting,value
"CCCCCCCCCCCOC(=O)CCCN(CCCCCCC(=O)OCCC(CCCCCC)CCCCCC)CCNC(CO)(CO)CCc1ccc(CCCCCCCC)cc1 [YK-910, 3-hexylnonyl 7-((2-((1-hydroxy-2-(hydroxymethyl)-4-(4-octylphenyl)butan-2-yl)amino)ethyl) (4-oxo-4-(undecyloxy)butyl)amino) heptanoate]",PDI,[1],10.3%
same,Particle size,[1],126 nm
same,Average radiation intensity of mouse organs: Heart,female BALB/C mice [2]; [6],0
same,Average radiation intensity of mouse organs: Kidney,female BALB/C mice [2]; [6],0
same,Average radiation intensity of mouse organs: Liver,female BALB/C mice [2]; [6],11424
same,Average radiation intensity of mouse organs: Lung,female BALB/C mice [2]; [6],0
same,Average radiation intensity of mouse organs: Lymph,female BALB/C mice [2]; [6],0
same,Average radiation intensity of mouse organs: Spleen,female BALB/C mice [2]; [6],242444
same,"Expression level of mRNA in the spleen, times that of SM-102","female BALB/C mice [2]; spleen, 6 h, vs SM-102",9.49 times
same,"Expression level of mRNA in the spleen, times that of YK-501","female BALB/C mice [2]; spleen, 6 h, vs YK-501",17.04 times
same,"Expression level of mRNA in the spleen, times that of YK-506","female BALB/C mice [2]; spleen, 6 h, vs YK-506",3.40 times
same,Cell viability,"293T cells [3]; LNP with 1.5 μg Fluc-mRNA, 24 hours, CCK-8",94%
same,Cell viability higher than that of HHMA,293T cells [3]; difference vs HHMA,17%
same,Cell viability higher than that of I-1,293T cells [3]; difference vs I-1,26%
same,Cell viability higher than that of Lipofectamine 3000,293T cells [3]; difference vs Lipofectamine 3000,63%
same,Cell viability higher than that of MC3,293T cells [3]; difference vs MC3,20%
same,Cell viability higher than that of SM-102,293T cells [3]; difference vs SM-102,12%
same,Cell viability higher than that of YK-501,293T cells [3]; difference vs YK-501,31%
same,Cytotoxicity lower than that of YK-902,293T cells [3]; difference vs YK-902,58%
same,Cell viability higher than that of YK-906,293T cells [3]; difference vs YK-906,31%
same,Cell viability higher than that of compound 7,293T cells [3]; difference vs compound 7,21%
same,Average radiation intensity of mouse organs: Heart,female BALB/C mice [4]; [7],0
same,Average radiation intensity of mouse organs: Kidney,female BALB/C mice [4]; [7],53243
same,Average radiation intensity of mouse organs: Liver,female BALB/C mice [4]; [7],33583
same,Average radiation intensity of mouse organs: Lung,female BALB/C mice [4]; [7],0
same,Average radiation intensity of mouse organs: Lymph,female BALB/C mice [4]; [7],0
same,Average radiation intensity of mouse organs: Spleen,female BALB/C mice [4]; [7],63583
same,"Fluorescence intensity in the spleen, times that of SM-102","female BALB/C mice [4]; Cy5 Leqvio, spleen, 4 h, vs SM-102",51.19 times
same,"Fluorescence intensity in the spleen, times that of YK-501","female BALB/C mice [4]; Cy5 Leqvio, spleen, 4 h, vs YK-501",11.91 times
same,"Fluorescence intensity in the spleen, times that of YK-506","female BALB/C mice [4]; Cy5 Leqvio, spleen, 4 h, vs YK-506",2.85 times
same,"Fluorescence intensity in the spleen, times that of direct administration","female BALB/C mice [4]; Cy5 Leqvio, spleen, 4 h, vs direct administration",150.67 times
same,"Cellular transfection efficiency, times that of HHMA",293T cells [5]; vs HHMA,8.53 times
same,"Cellular transfection efficiency, times that of I-1",293T cells [5]; vs I-1,42.56 times
same,"Cellular transfection efficiency, times that of Lipofectamine 3000",293T cells [5]; vs Lipofectamine 3000,10.24 times
same,"Cellular transfection efficiency, times that of MC3",293T cells [5]; vs MC3,90.92 times
same,"Cellular transfection efficiency, times that of SM-102",293T cells [5]; vs SM-102,6.04 times
same,"Cellular transfection efficiency, times that of YK-501",293T cells [5]; vs YK-501,186.59 times
same,"Cellular transfection efficiency, times that of YK-506",293T cells [5]; vs YK-506,13.19 times
same,"Cellular transfection efficiency, times that of YK-903",293T cells [5]; vs YK-903,345.06 times
same,"Cellular transfection efficiency, times that of YK-906",293T cells [5]; vs YK-906,313 times and 313.25 times
same,"Cellular transfection efficiency, times that of compound 7",293T cells [5]; vs compound 7,33.51 times
